Here are results for six compounds from ChEMBL document CHEMBL1148363, “New, non-adenosine, high-potency agonists for the human adenosine A2B receptor with an improved selectivity profile compared to the reference agonist N-ethylcarboxamidoadenosine” (J Med Chem, 2004).

Structures are written as SMILES.

Assay [1] concerns the target T1, Adenosine receptor A2b (Homo sapiens) (UniProt P29275).
T1 sequence (whole entry): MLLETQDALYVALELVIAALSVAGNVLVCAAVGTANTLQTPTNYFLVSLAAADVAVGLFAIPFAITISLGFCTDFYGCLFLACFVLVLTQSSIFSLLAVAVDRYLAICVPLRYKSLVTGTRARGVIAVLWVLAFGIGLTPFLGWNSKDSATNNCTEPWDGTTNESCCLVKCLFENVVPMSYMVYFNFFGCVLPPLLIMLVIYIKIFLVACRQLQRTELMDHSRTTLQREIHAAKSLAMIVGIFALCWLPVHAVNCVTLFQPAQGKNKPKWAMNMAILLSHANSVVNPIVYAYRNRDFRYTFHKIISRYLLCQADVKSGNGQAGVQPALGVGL
Nature of the assay: Stimulation of human adenosine A2B receptor in production of cAMP in CHO cells. Format: functional, cell-based.

The target in assay [2] is Adenosine receptor A2a (Homo sapiens, UniProt P29274). Nature of the assay: biochemical.
Adenosine receptor A2a, sequence (P29274 whole entry): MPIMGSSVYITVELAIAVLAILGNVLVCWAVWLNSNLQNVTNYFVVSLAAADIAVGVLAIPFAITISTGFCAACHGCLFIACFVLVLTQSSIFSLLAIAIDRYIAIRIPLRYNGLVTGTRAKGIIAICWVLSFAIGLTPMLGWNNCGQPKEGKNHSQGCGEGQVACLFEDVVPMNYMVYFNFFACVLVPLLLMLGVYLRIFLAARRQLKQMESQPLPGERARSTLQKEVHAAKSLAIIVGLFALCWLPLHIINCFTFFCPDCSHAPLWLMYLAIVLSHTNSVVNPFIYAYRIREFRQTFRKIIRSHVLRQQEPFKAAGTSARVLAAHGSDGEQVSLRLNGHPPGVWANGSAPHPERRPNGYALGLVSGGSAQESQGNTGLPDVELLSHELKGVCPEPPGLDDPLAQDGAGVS
Description: Binding affinity against human adenosine A2A receptor expressed in HEK293 cells using [3H]ZM-241385
The target of assay [3] is T2, Adenosine receptor A1 (Homo sapiens, UniProt P30542).
T2 sequence (P30542 whole entry): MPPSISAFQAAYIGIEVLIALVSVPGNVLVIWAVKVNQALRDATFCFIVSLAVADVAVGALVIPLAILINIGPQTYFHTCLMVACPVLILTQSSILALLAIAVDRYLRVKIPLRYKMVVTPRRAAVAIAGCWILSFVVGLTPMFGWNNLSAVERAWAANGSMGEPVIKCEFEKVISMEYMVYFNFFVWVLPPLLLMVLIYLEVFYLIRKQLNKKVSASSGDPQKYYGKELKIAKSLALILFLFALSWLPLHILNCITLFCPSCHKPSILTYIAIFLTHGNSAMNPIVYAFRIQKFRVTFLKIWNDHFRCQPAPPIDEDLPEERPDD
Briefly: Binding affinity against human adenosine A1 receptor expressed in CHO cells using [3H]DPCPX. Format: cell-based.

Assay [4] addresses T3, Adenosine receptor A1 (Homo sapiens) (UniProt P30542).
T3 sequence (whole entry): T2 sequence (P30542 whole entry)
Nature of the assay: Inhibition of human adenosine A1 receptor in production of cAMP in CHO cells. It is filed as functional, cell-based.

For assay [5], the target named is T4, Adenosine receptor A2b (Homo sapiens, UniProt P29275).
T4 sequence (P29275 whole entry): T1 sequence (whole entry)
Description: Agonistic activity against human adenosine A2B receptor expressed in CHO cells

Assay [6] deals with T5, Adenosine receptor A3 (Homo sapiens) (UniProt P0DMS8).
T5 sequence (whole entry): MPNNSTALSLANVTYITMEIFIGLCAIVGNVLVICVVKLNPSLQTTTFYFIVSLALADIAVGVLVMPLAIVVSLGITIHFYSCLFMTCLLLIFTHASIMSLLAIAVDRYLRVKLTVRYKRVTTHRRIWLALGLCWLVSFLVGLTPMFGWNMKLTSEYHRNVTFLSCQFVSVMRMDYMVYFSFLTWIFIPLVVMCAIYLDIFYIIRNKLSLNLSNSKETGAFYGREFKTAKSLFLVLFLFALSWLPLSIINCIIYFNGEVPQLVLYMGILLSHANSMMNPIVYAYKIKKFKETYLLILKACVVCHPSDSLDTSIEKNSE
Nature of the assay: Inhibition of human adenosine A3 receptor in production of cAMP in CHO cells. Format: functional, cell-based.

Assay [7] concerns the target T6, Adenosine receptor A3 (Homo sapiens, UniProt P0DMS8).
T6 sequence (P0DMS8 whole entry): T5 sequence (whole entry)
Briefly: Binding affinity against human adenosine A3 receptor expressed on HEK293 cells using [125I]I-AB-MECA. Format: cell-based.

The test system of assay [8] is CHO. Nature of the assay: cells. Conditions: Cricetulus griseus, read-out: pA2 (converted).

For the compound `N#Cc1c(N)nc(SCc2ncc[nH]2)c(C#N)c1-c1ccc(O)cc1`, the values for the Efficacy in assay [1], in assay [4] and in assay [6] were 74%, 103% and 23%, respectively. Moreover, the Ki in assay [2] stood at 28 nM; in assay [3], 2.6 nM; in assay [7], 538 nM. The compound further displayed a 50% effective concentration (EC50) in assay [5] of 12 nM.
Consider `COc1ccc(-c2c(C#N)c(N)nc(SCc3ncc[nH]3)c2C#N)cc1`, for which the Efficacy in assay [1] came out at 33%; in assay [4], 46%; in assay [6] it was 73%. In addition, the inhibition constant Ki in assay [2] is 214 nM; in assay [3] it was 7 nM. For the same compound, the EC50 in assay [5] was 9 nM.
Consider `COc1cccc(-c2c(C#N)c(N)nc(SCc3ncc[nH]3)c2C#N)c1`, for which the figures for the Efficacy in assay [1], in assay [4] and in assay [6] were 68%, 80% and 39%, respectively. Further, the results for the inhibitory constant (Ki) in assay [2], in assay [3] and in assay [7] were 105 nM, 2 nM and 74 nM, respectively. The EC50 in assay [5] worked out at 34 nM.
With `N#Cc1c(N)nc(SCc2ncc[nH]2)c(C#N)c1-c1cccc(O)c1`, the Efficacy is 92% in assay [1], 112% in assay [4] and 95% in assay [6]. Further, the inhibition constant (Ki) turned out to be 21 nM in assay [2], 4.4 nM in assay [3] and 104 nM in assay [7]. Further, the EC50 in assay [5] was 10 nM.
For the compound `N#Cc1c(N)nc(SCc2ncc[nH]2)c(C#N)c1-c1ccccc1`, the figures for the Efficacy in assay [1], in assay [4] and in assay [6] were 81%, 109% and 84%, respectively.
`Nc1nc2ccc(Cl)cc2c2nc(-c3ccco3)nn12` [CGS-15943]: in assay [8], the Kb was 5.01 nM.
